Earlier results as cited in patent US4749688A, “Use of neutral metalloendopeptidase inhibitors in the treatment of hypertension” (Schering Corporation, priority 1986, dated 1988).

How the values were obtained:
peripheral ACE = peripheral ACE (Homo sapiens, UniProt P12821)
[1] = in vivo

Sequence of peripheral ACE (P12821 30-1306): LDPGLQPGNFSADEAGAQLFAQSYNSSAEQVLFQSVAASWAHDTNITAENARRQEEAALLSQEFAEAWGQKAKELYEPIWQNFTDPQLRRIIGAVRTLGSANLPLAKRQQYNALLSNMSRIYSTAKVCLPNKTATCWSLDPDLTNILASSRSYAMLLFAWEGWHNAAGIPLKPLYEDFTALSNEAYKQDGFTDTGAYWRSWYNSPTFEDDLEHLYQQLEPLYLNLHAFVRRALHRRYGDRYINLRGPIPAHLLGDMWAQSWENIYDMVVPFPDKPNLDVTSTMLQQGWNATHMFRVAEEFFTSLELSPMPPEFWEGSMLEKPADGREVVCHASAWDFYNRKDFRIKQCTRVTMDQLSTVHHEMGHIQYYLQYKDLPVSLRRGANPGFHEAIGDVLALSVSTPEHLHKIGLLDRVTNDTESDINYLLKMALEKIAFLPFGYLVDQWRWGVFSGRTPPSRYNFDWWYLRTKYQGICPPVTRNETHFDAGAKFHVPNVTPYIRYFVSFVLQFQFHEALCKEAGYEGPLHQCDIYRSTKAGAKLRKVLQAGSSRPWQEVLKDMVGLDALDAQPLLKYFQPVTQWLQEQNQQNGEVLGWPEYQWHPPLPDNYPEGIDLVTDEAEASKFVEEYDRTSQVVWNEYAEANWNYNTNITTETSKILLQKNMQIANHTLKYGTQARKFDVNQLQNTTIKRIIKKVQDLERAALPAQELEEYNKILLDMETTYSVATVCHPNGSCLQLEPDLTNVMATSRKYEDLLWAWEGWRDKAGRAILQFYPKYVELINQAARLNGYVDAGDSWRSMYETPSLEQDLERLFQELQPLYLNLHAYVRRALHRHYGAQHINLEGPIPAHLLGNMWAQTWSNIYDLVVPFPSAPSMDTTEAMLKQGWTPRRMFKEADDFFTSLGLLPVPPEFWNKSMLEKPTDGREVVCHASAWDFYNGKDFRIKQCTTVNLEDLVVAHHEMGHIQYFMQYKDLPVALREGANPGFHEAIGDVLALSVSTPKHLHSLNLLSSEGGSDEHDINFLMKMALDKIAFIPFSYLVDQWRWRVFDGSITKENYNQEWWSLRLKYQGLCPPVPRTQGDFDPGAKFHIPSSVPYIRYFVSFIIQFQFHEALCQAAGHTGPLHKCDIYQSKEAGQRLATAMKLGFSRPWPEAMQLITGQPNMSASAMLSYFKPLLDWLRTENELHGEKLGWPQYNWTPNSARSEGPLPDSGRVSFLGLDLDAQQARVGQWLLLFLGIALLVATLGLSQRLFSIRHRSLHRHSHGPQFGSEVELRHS

With `O=C(O)CNC(=O)C(CS)Cc1ccccc1` (racemic) [thiorphan, N-[(R,S)-3-mercapto-2-benzylpropanoyl]-glycine] as the compound, how does the “inhibition of peripheral ACE” value (peripheral ACE) read?
Its value is “inhibit peripheral ACE”.

And the blood pressure [1]?
The blood pressure was “not affected”.

And the heart rate [1]?
The heart rate was “not affected”.
